Experimental data published in publication PMC13266984 (Journal of medicinal chemistry, 2026).
pIC50: −log10 of the molar value.

Molecular target: T1, Human ALDH3A1 (Homo sapiens, UniProt P30838)
T1 sequence (P30838 1-453): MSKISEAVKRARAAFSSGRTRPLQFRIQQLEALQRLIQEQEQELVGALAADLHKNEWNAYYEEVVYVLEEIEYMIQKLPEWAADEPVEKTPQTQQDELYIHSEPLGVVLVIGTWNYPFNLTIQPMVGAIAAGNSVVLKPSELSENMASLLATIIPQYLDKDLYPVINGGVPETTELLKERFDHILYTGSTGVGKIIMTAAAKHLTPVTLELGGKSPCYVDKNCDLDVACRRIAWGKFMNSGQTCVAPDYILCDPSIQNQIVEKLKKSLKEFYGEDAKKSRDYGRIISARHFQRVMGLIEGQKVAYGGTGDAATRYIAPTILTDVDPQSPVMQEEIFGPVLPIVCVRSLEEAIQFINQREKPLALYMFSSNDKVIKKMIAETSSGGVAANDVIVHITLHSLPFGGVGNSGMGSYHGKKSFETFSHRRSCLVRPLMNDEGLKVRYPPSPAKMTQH
Test: ALDH3A1 biochemical assay (benzaldehyde/NADP+, diaphorase-resazurin readout, 1,536-well)
Conditions: for CC-v2: curve class

AC50	Efficacy (Table S2, in-house analogs)	CC-v2 (Table S2, in-house analogs)	Efficacy (Table S1, primary screen)	CC-v2 (Table S1, primary screen)	Efficacy (ALDH3A1 biochemical)	pIC50 (ALDH3A1 biochemical IC50, text)	LLE (Table S7, pAC50 − cLogP)	SMILES
3.55 µM	-54.85	-1.2						COc1ccc(N2CCN(c3nc(C(=O)NCc4ccccc4C)cs3)CC2)cc1 [NCGC00430666-01]
31.6 µM			-39.16	-2.2				COCc1noc(-c2ccc(NC[C@H]3CCc4ccccc4O3)nc2)n1 [NCGC00428876-01]
15.8 µM			-25.02	-2.4				O=C(CCc1cc2n(n1)CCCNC2)Nc1ccc2c(c1)OCCO2 [NCGC00441819-01]
14.1 µM			-81.82	-2.2				COc1cccc(CNC(=O)CCNc2cnc3cnccn23)c1 [NCGC00433986-01]
25.1 µM	-31.39	-2.4						COc1ccc(-n2nc(C)c([C@@H]3C=C[C@@H](NCc4ccccc4)C3)c2C)cc1 [NCGC00391544-01]
12.6 µM	-54.71	-2.2						COc1cccc(N2CCN(c3nc(C(=O)NCc4ccco4)cs3)CC2)c1 [Compound 3]
28.2 µM	-37.07	-2.4						O=C(NCC1CC1)c1csc(N2CCN(c3ccccc3F)CC2)n1 [NCGC00430728-01]
20 µM			-57.15	-2.2				Cc1cc(=O)[nH]c(N2CCC(NC(=O)NCc3ccco3)CC2)n1 [NCGC00530028-01]
39.8 µM			-39.06	-2.2				CNCc1cn(C[C@H]2O[C@@H](CC(=O)NCc3ccc(F)cc3)[C@H](O)[C@@H]2O)nn1 [NCGC00400077-01]
12.6 µM	-83.58	-1.1						CNC(=O)c1cccc(-c2cnc3[nH]cc(CC(=O)NCC(C)C)c3c2)c1 [NCGC00412294-01]
14.1 µM			-63.09	-2.2				COc1ccc(NC(=O)N[C@H]2C[C@@H](C(=O)N[C@@H](Cc3cccs3)C(N)=O)N(C(=O)CSC)C2)cc1 [NCGC00398253-01]
3.98 µM	-57.20	-1.2						COc1ccc(N2CCN(c3nc(C(=O)NCc4ccc(C)cc4)cs3)CC2)cc1 [NCGC00430668-01]
7.08 µM	-65.35	-1.2						O=C(NCc1cccs1)c1csc(N2CCN(c3ccc(F)cc3)CC2)n1 [NCGC00430736-01]
2.82 µM	-61.06	-2.2						Cc1c(-c2cc(C(=O)NCc3cccnc3)c3c(c2)N(C)CCO3)cnn1C [NCGC00417124-01]
17.8 µM	-40.16	-2.2						COc1cccc(-c2cc(C(=O)NCc3cnn(C)c3)c3c(c2)N(C)CCO3)c1OC [NCGC00417015-01]
5.62 µM	-73.33	-2.4						CNC(=O)c1cccc(-c2cnc3[nH]cc(CC(=O)Nc4ccccc4C)c3c2)c1 [NCGC00412345-01]
15.8 µM			-43.09	-2.4				COc1ccc(CCN2Cc3cc(NC(=O)Cc4cccs4)ccc3OCC2=O)cc1 [NCGC00475032-01]
6.31 µM	-78.52	-1.2						O=C(NCc1cccs1)c1csc(N2CCN(c3ccccc3F)CC2)n1 [NCGC00430730-01]
14.1 µM	-80.78	-2.2						CN1CCOc2c(C(=O)NCCC(N)=O)cc(-c3ccc(O)c(F)c3)cc21 [NCGC00417031-01]
28.2 µM			-57.51	-2.2				CCn1nc(C)c(CNC(=O)c2cc(COc3ccc4ncccc4c3)on2)c1C [NCGC00426725-01]
20 µM	-27.04	-2.4						COc1cc(F)ccc1-c1cc(C(=O)NCCC(N)=O)c2c(c1)N(C)CCO2 [NCGC00417040-01]
0.32 µM	-23.33	-1.4						Cc1ccc2[nH]c(CO[C@H]3CN(C4CCOCC4)C[C@H]3F)nc2c1 [NCGC00392993-01]
15.8 µM			-45.94	-2.2				COc1cccc(CN2CC(C(=O)NCc3cc4ccccc4[nH]3)CCC2=O)c1 (stereo not drawn) [NCGC00449252-01]
35.5 µM			-44.11	-2.2				O=C(NCc1nc(-c2ccccc2)no1)C1CCN(c2cc(-n3cncn3)ncn2)CC1 [NCGC00526793-01]
4.47 µM			-31.03	-1.2				Cc1ccc2nc(CN3CCC(c4cccc(C#N)c4)CC3)cc(O)c2c1 [NCGC00449346-01]

AC50	Efficacy (Table S2, in-house analogs)	CC-v2 (Table S2, in-house analogs)	Efficacy (Table S1, primary screen)	CC-v2 (Table S1, primary screen)	Efficacy (ALDH3A1 biochemical)	pIC50 (ALDH3A1 biochemical IC50, text)	LLE (Table S7, pAC50 − cLogP)	SMILES
0.11 µM	-32.51	-1.2						COc1ccc(N2CCN(c3nc(C(=O)NC4CC4)cs3)CC2)cc1 [NCGC00430672-01]
39.8 µM			-51.44	-3				COc1cccc(CN2CC(Oc3ccccc3C(=O)NC3CC3)C2)c1 [NCGC00458073-01]
4.47 µM	-32.83	-1.4						COc1ccc(N2CCN(c3nc(C(=O)NCc4ccc(F)cc4F)cs3)CC2)cc1 [NCGC00430664-01]
14.1 µM	-93.02	-1.1						COc1ccc(NC(=O)N[C@@H]2C=C[C@@H](c3c(C)nn(CCC#N)c3C)C2)cc1 [NCGC00399960-01]
1.41 µM	-74.85	-1.2			74%	5.85	2.143	Cc1cccc(CNC(=O)c2csc(N3CCN(c4ccccc4)CC3)n2)c1 [NCGC00430642-01]
10 µM			-21.09	-1.4				O=C(NCc1ccc(Cl)cc1)c1cc2n(n1)CC(c1ccc3c(c1)OCO3)OC2 (stereo not drawn) [NCGC00450299-01]
10 µM	-39.09	-1.2						Cc1nn(-c2ccc(C(C)C)cc2)c(C)c1[C@@H]1C=C[C@@H](NCc2cccc(C#N)c2)C1 [NCGC00421409-01]
15.8 µM			-70.18	-2.2				COCC(=O)Nc1ncncc1-c1noc([C@@H]2CCCN2Cc2cc(OC)c(OC)c(OC)c2)n1 [NCGC00394846-01]
8.91 µM			-29.51	-1.4				C=CCOc1c(OC)ccc2c1CN(Cc1ccccc1)C(=O)CCN2CC(O)COc1ccc(OC)cc1 (stereo not drawn) [NCGC00501442-01]
0.25 µM	-26.81	-1.4						CNC(=O)c1cccc(-c2cnc3[nH]cc(CC(=O)N(C)c4ccccc4)c3c2)c1 [NCGC00412252-01]
15.8 µM	-39.10	-2.2						Cc1cc(CNC(=O)c2cc(-c3cnn(C)c3)cc3c2OCCN3C)no1 [NCGC00417081-01]
15.8 µM	-42.05	-2.4						O=C(NC1CCCC1)c1csc(N2CCN(c3cccc(Cl)c3)CC2)n1 [NCGC00430704-01]
3.98 µM			-69.95	-1.2				COc1ccc(OCc2cc(C(=O)NC(CO)C(C)C)no2)c2ccccc12 (stereo not drawn) [NCGC00427669-01]
44.7 µM			-38.45	-2.2				CNC(=O)c1cccc(-c2cnc(Nc3cncnc3)c3c2CCO3)c1 [NCGC00412778-01]
3.98 µM	-97.74	-1.1						Cc1cc(Cl)ccc1-n1nc(C)c([C@@H]2C=C[C@@H](NC(=O)c3ccc(N(C)C)cc3)C2)c1C [NCGC00394621-01]
35.5 µM			-47.14	-2.4				COc1ccc(CCC(=O)N2CCc3[nH]c(=O)c(C#N)cc3C2)c(OC)c1OC [NCGC00527314-01]
14.1 µM			-93.27	-2.3				Cc1cc(OC2CN(C(=O)c3cc(-c4ccc(F)cc4)n[nH]3)C2)n2ncnc2n1 [NCGC00531207-01]
11.2 µM			-31.52	-2.2				CC(O)c1ccc(CCNC(=O)C(=O)Nc2cc3c4c(c2)CC(=O)N4CCC3)s1 (stereo not drawn) [NCGC00529385-01]
0.18 µM	-21.56	-1.4						COC(=O)c1ccc2nc(CO[C@H]3CN(C4CCOCC4)C[C@H]3F)[nH]c2c1 [NCGC00392980-01]
4.47 µM	-26.14	-2.4						Cc1ccc2[nH]c(CO[C@H]3CN(Cc4ccc(F)c(F)c4)C[C@H]3F)nc2c1 [NCGC00392991-01]
0.71 µM	-61.67	-1.2						O=C(NCc1cccc(F)c1)c1csc(N2CCN(c3ccc(Cl)cc3)CC2)n1 [Compound 1]
7.94 µM			-29.03	-1.4				CC(=O)Nc1ccc(CN2CC(Oc3ccc4c(c3)OCO4)C2)cc1 [NCGC00373680-01]
14.1 µM			-59.29	-2.4				O=C(NCC(F)(F)F)c1cc(C2CCN(C(=O)c3cc(-c4ccco4)n[nH]3)CC2)n[nH]1 [NCGC00528999-01]
35.5 µM			-44.61	-2.2				C[S+](=O)([O-])c1ccc(CN2C[C@H](O)C[C@H]2c2nc(C3CC3)no2)cc1 [NCGC00396353-01]
14.1 µM	-68.54	-2.2						COc1cccc(N2CCN(c3nc(C(=O)NCc4cccnc4)cs3)CC2)c1 [NCGC00430684-01]
